The term Kd denotes a measure of binding affinity in units of concentration.

Where “and” joins values, the source holds several entries; their conditions need not be identical. Equal entries are not always repeated. Bounds are passed on as bounds.

Consider 2 compounds from US12617818B2, “Compositions and methods for modulating myosin subfragment-2 coiled coil stability and methods for using them” (UNIVERSITY OF NORTH TEXAS, priority 2020, dated 2026).

Assay [1] relates to human cardiac myosin S2 peptide. Briefly: Competitive ELISA (cELISA) against polyclonal anti-S2 antibody. The class given is binding. The settings on record: low-high-low OD trend. As for the experimental part: Phosphate buffer saline (PBS) contained 0.14 M sodium chloride, 2.7 mM potassium chloride, 1.5 mM potassium phosphate monobasic, and 8.1 mM sodium phosphate dibasic with pH 7.4. Detergent buffer was made with 0.05% triton X-100 in PBS, blocking buffer was made with 3% powdered milk in detergent buffer. Assay buffer contained 100 mM potassium phosphate dibasic, 100 mM potassium phosphate monobasic, 1 M potassium chloride and 10 mM magnesium chloride with pH 7.0. Stocks of primary antibody (polyclonal antibody anti-S2), rabbit skeletal myosin, human cardiac myosin S2 peptide, stabilizer and destabilizer peptide. Secondary antibody conjugated with alkaline phosphatase was anti-guinea pig immunoglobulin G (IgG)-alkaline phosphatase (Sigma-Aldrich, catalog number A5062) produced in goat and isolated by affinity chromatography. Substrate was 5-Bromo-4-chloro-3-indolyl phosphate (BCIP) tablets dissolved in 10 ml of distilled water per tablet and 96 well microtiter plate.
Competitive Enzyme Linked Immunosorbent Assay (cELISA) is a classical immunochemical test to validate the binding efficiency and specificity in lower molar concentrations (Yorde et al., 1976; Voller et al., 1978; Walker, J. M. 1996). In this assay the polyclonal antibody anti-S2 raised against single alpha helix of myosin S2 would be used to compete with stabilizer or destabilizer peptide to bind myosin S2 in rabbit skeletal myosin molecule as well as small human cardiac myosin S2 peptide. This cELISA, thus have two molecules polyclonal anti-S2 and stabilizer peptide which have two binding sites one on rabbit skeletal myosin and the other one being on small human cardiac myosin S2. Since both polyclonal anti-S2 and stabilizer peptide were designed against human β-cardiac myosin S2 they both would have a stronger affinity towards the smaller human β-cardiac myosin S2 peptide against the myosin S2 on rabbit skeletal myosin.
To test the binding specificity and efficiency of stabilizer or destabilizer peptide the following setup was used. Start of the setup would be to coat the wells with rabbit skeletal myosin molecule and add appropriate amount human cardiac myosin S2 peptide that would bind the primary polyclonal anti-S2 antibody and when washed there won't be enough primary polyclonal anti-S2 antibody to bind myosin S2 of rabbit skeletal myosin adsorbed on the wells. When alkaline phosphatase conjugated secondary antibody is added on to the wells, it won't have enough or none primary polyclonal anti-S2 antibody to bind. After addition of color developing BCIP substrate to the wells it would lead to low or no color development leading to lower optical density (OD). […]
For orientation: ELISA stands for enzyme-linked immunosorbent assay.

Assay [2] has as its system rabbit skeletal myofibrils. Briefly: Myofibrillar contractility assay (incubated myofibrils, 1 mM ATP). In kind it is biochemical.
For assay [3], the target named is T1, cardiac muscle myosin S2 mutant peptide E930del (MYH7) (Homo sapiens, UniProt P12883, DEL930-930).
T1 construct: cardiac muscle myosin S2 peptides region 921 to 939; host or cells: chemical synthesis
The assay can be described thus: FRET of E930del mutant cardiac myosin S2 peptide dimer with stabilizer. In kind it is binding. An excerpt:
This mutation cause mechanical instability and unstable coiled coil. Again the sequence of this mutation was obtained using PDB. An 18 residue peptide of this region was chemically synthesized. Generated amino acid sequence used is as follow: • E930del: NH2-[…]—COOH (SEQ ID NO:8)
Resonance energy probes (donor and acceptor) were covalently attached to synthetic myosin S2 peptides of cardiac muscle, E930del cardiac muscle, E924K cardiac muscle, smooth muscle, and skeletal muscle (Aboonasrshiraz, N., 2020).
Acceptor probe was conjugated to muscle myosin S2 peptides at N-terminus. Muscle myosin S2 peptides were dissolved in 20 mM HEPES buffer at pH 8.0. And FITC was dissolved in few drops of N, N dimethyl formamide. Lastly, FITC and muscle myosin S2 peptide was reacted together in 1 to 1 molar ratio and was let to react for 120 minutes at room temperature. The FITC conjugated S2 peptides were purified using […]. […]
In FRET assay, Fluorescein Isothiocyanate (FITC) functioned as fluorescent acceptor probe and Terbium Diethylene Triamine Pentaacetic Acid-Cytosine (Lanthanide-DTPA-Cytosine) functioned as donor probe. […] Lifetime of donor probe was measured in milliseconds.
In FRET assay, like E924K, Edel930 was treated with different concentrations of the stabilizer. […] Calculated separation distance in presence of the stabilizer peptide was 3.38 nm.

In the case of `CSCC[C@H](NC(=O)[C@H](CCC(=O)O)NC(=O)[C@H](CCCNC(=N)N)NC(=O)[C@H](CCC(=O)O)NC(=O)[C@H](CC(=O)O)NC(=O)[C@H](CCC(=O)O)NC(=O)[C@H](CC(C)C)NC(=O)[C@H](CCCNC(=N)N)NC(=O)[C@H](CCC(=O)O)NC(=O)[C@H](CC(N)=O)NC(=O)[C@H](CCSC)NC(=O)[C@@H](N)CCC(=O)O)C(=O)N[C@@H](CCCCN)C(=O)N[C@@H](C)C(=O)N[C@@H](CCC(=O)O)C(=O)N[C@@H](CC(C)C)C(=O)N[C@H](C(=O)N[C@@H](C)C(=O)N[C@@H](CCCCN)C(=O)O)[C@@H](C)O` [Destabilizer], in assay [1], the “cross specificity to human cardiac myosin S2 and rabbit skeletal myosin S2” value was “cross specific”. The “concentration above which percentage contraction saturated” value in assay [2] was “above 40 nM”. Also, the Kd in assay [2] (from percentage contraction vs concentration, listed as destabilizer peptide, read-out: binding efficiency (Kd) to myofibrils) is 7.88 nM and 7.8 nM. Besides, the “maximum percentage contraction in myofibrils” value in assay [2] (in presence of destabilizer peptide) is 43% and 41%. The EC50 in assay [2] (read-out: effective concentration on percentage of contraction in myofibrils) is less than 10 nM.

As for `C[C@H](NC(=O)[C@H](CCCCN)NC(=O)[C@H](Cc1ccccc1)NC(=O)[C@H](CCCCN)NC(=O)[C@H](CCCCN)NC(=O)[C@H](CCCCN)NC(=O)[C@H](CCCCN)NC(=O)[C@H](CCCCN)NC(=O)[C@H](CCCCN)NC(=O)[C@H](CCCCN)NC(=O)[C@@H](N)CCCCN)C(=O)N[C@@H](CCCCN)C(=O)N[C@@H](CCCCN)C(=O)N[C@@H](CCCCN)C(=O)N[C@@H](CCCCN)C(=O)N[C@@H](CCCCN)C(=O)N[C@@H](CCCCN)C(=O)O` [Stabilizer], the “TD (donor lifetime without acceptor)” value in assay [3] stood at 1.89E−03.
